Ki data for 14 molecules are collected here from patent publication US8461107B2 (Merck Sharp & Dohme Corp., priority 2008, dated 2013).

SMILES strings stand for the structures.

The test concerns the target T1, HCV genotype 1b (BK) NS3 modified with a R155K mutation (Hepatitis C virus genotype 1b, UniProt P26663, R1181K).
T1 construct: HCV genotype 1b (BK) NS3 modified with a R155K mutation
Kind of test: HCV NS3 protease time-resolved fluorescence (TRF) assay, NS3 protease 1b R155K Ki activity. Conditions: HCV genotype 1b (BK) NS3 with R155K mutation; TRF peptide substrate 100 nM; Ki derived from IC50. The test is classed as biochemical. The essentials:
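Pre-incubation of NS3/NS4A protease (genotype 1b BK, R155K) with inhibitor for 30 min, then 1 h at room temperature with 100 nM TRF peptide substrate in pH 7.5 HEPES buffer with 10 mM DTT. Reaction quenched with pH 5.5 MES; time-resolved fluorescence read (ex 340/em 615 nm). Ki derived from four-parameter IC50 fit via IC50=Ki(1+[S]/KM).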
As a reminder, the Ki is the equilibrium dissociation constant of an inhibitor or competing ligand from its target. A high value points to weaker binding. `CC[C@@H]1C[C@]1(NC(=O)[C@@H]1C[C@@H]2CN1C(=O)[C@H](C1CCCC1)NC(=O)O[C@@H]1CCC[C@H]1CCCCCn1c(nc3cc(Cl)ccc3c1=O)O2)C(=O)NS(=O)(=O)C1CC1` [(3aR,7S,10S,12R,25aR)-16-chloro-7-cyclopentyl-N-((1R,2R)-1-{[(cyclopropylsulfonyl)amino]carbonyl}-2-ethylcyclopropyl)-5,8,19-trioxo-1,2,3,3a,5,6,7,8,11,12,21,22,23,24,25,25a-hexadecahydro-10H,19H-9,12-methanocyclopenta[18,19][1,10,3,6,12]dioxatriazacyclononadecino[11,12-b]quinazoline-10-carboxamide] gave an inhibitory constant (Ki) of 0.1 to 0.5 nM.

With `CC[C@@H]1C[C@]1(NC(=O)[C@@H]1C[C@@H]2CN1C(=O)[C@H](C1CCCC1)NC(=O)O[C@@H]1CCC[C@H]1CCCCCn1c(cc3cc(Cl)ccc3c1=O)O2)C(=O)NS(=O)(=O)C1CC1` [(3aR,7S,10S,12R,25aR)-16-chloro-7-cyclopentyl-N-((1R,2R)-1-{[(cyclopropylsulfonyl)amino]carbonyl}-2-ethylcyclopropyl)-5,8,19-trioxo-1,2,3,3a,5,6,7,8,11,12,21,22,23,24,25,25a-hexadecahydro-10H,19H-9,12-methanocyclopenta[18,19][1,10,3,6,12]dioxatriazacyclononadecino[12,11-b]isoquinoline-10-carboxamide], the Ki fell in the range of 0.1 to 0.5 nM.

Consider `C=C[C@@H]1C[C@]1(NC(=O)[C@@H]1C[C@@H]2CN1C(=O)[C@H](C1CCCC1)NC(=O)O[C@@H]1CCC[C@H]1CCCCCn1c(nc3cc(Cl)ccc3c1=O)O2)C(=O)NS(=O)(=O)C1CC1` [(3aR,7S,10S,12R,25aR)-16-chloro-7-cyclopentyl-N-((1R,2S)-1-{[(cyclopropylsulfonyl)amino]carbonyl}-2-vinylcyclopropyl)-5,8,19-trioxo-1,2,3,3a,5,6,7,8,11,12,21,22,23,24,25,25a-hexadecahydro-10H,19H-9,12-methanocyclopenta[18,19][1,10,3,6,12]dioxatriazacyclononadecino[11,12-b]quinazoline-10-carboxamide], for which the Ki was < 0.1 nM.

As to `C=C[C@@H]1C[C@]1(NC(=O)[C@@H]1C[C@@H]2CN1C(=O)[C@H](C1CCCC1)NC(=O)O[C@@H]1CCC[C@H]1CCCCCn1c(cc3cc(Cl)ccc3c1=O)O2)C(=O)NS(=O)(=O)C1CC1` [(3aR,7S,10S,12R,25aR)-16-chloro-7-cyclopentyl-N-((1R,2S)-1-{[(cyclopropylsulfonyl)amino]carbonyl}-2-vinylcyclopropyl)-5,8,19-trioxo-1,2,3,3a,5,6,7,8,11,12,21,22,23,24,25,25a-hexadecahydro-10H,19H-9,12-methanocyclopenta[18,19][1,10,3,6,12]dioxatriazacyclononadecino[12,11-b]isoquinoline-10-carboxamide], the inhibitory constant (Ki) is < 0.1 nM.

Molecule `C=C[C@@H]1C[C@]1(NC(=O)[C@@H]1C[C@@H]2CN1C(=O)[C@H](C1CCCC1)NC(=O)O[C@@H]1CCC[C@H]1CCCCCCn1c(cc3ccccc3c1=O)O2)C(=O)NS(=O)(=O)C1CC1` [(3aR,7S,10S,12R,26aR)-7-cyclopentyl-N-((1R,2S)-1-{[(cyclopropylsulfonyl)amino]carbonyl}-2-vinylcyclopropyl)-5,8,19-trioxo-2,3,3a,5,6,7,8,11,12,21,22,23,24,25,26,26a-hexadecahydro-1H,10H,19H-9,12-methanocyclopenta[19,20][1,10,3,6,12]dioxatriazacycloicosino[12,11-b]isoquinoline-10-carboxamide] displayed a Ki of 0.1 to 0.5 nM.

Molecule `CC[C@@H]1C[C@]1(NC(=O)[C@@H]1C[C@@H]2CN1C(=O)[C@H](C(C)(C)C)NC(=O)O[C@@H]1CCC[C@H]1CCCCCCn1c(cc3ccccc3c1=O)O2)C(=O)NS(=O)(=O)C1CC1` [(3aR,7S,10S,12R,26aR)-7-tert-butyl-N-((1R,2R)-1-{[(cyclopropylsulfonyl)amino]carbonyl}-2-ethylcyclopropyl)-5,8,19-trioxo-2,3,3a,5,6,7,8,11,12,21,22,23,24,25,26,26a-hexadecahydro-1H,10H,19H-9,12-methanocyclopenta[19,20][1,10,3,6,12]dioxatriazacycloicosino[12,11-b]isoquinoline-10-carboxamide] returned a Ki of 1 to 5 nM.

`C=C[C@@H]1C[C@]1(NC(=O)[C@@H]1C[C@@H]2CN1C(=O)[C@H](C(C)(C)C)NC(=O)O[C@@H]1CCC[C@H]1CCCCCCn1c(cc3ccccc3c1=O)O2)C(=O)NS(=O)(=O)C1CC1` [(3aR,7S,10S,12R,26aR)-7-tert-butyl-N-((1R,2S)-1-{[(cyclopropylsulfonyl)amino]carbonyl}-2-vinylcyclopropyl)-5,8,19-trioxo-2,3,3a,5,6,7,8,11,12,21,22,23,24,25,26,26a-hexadecahydro-1H,10H,19H-9,12-methanocyclopenta[19,20][1,10,3,6,12]dioxatriazacycloicosino[12,11-b]isoquinoline-10-carboxamide]: the Ki was in the range of 0.1 to 0.5 nM.

On to `CC[C@@H]1C[C@]1(NC(=O)[C@@H]1C[C@@H]2CN1C(=O)[C@H](C(C)(C)C)NC(=O)O[C@H]1CCC[C@@H]1CCCCCCn1c(cc3ccccc3c1=O)O2)C(=O)NS(=O)(=O)C1CC1` [(3aS,7S,10S,12R,26aS)-7-tert-butyl-N-((1R,2R)-1-{[(cyclopropylsulfonyl)amino]carbonyl}-2-ethylcyclopropyl)-5,8,19-trioxo-2,3,3a,5,6,7,8,11,12,21,22,23,24,25,26,26a-hexadecahydro-1H,10H,19H-9,12-methanocyclopenta[19,20][1,10,3,6,12]dioxatriazacycloicosino[12,11-b]isoquinoline-10-carboxamide], for which the Ki is 1 to 5 nM.

Regarding `C=C[C@@H]1C[C@]1(NC(=O)[C@@H]1C[C@@H]2CN1C(=O)[C@H](C(C)(C)C)NC(=O)O[C@H]1CCC[C@@H]1CCCCCCn1c(cc3ccccc3c1=O)O2)C(=O)NS(=O)(=O)C1CC1` [(3aS,7S,10S,12R,26aS)-7-tert-butyl-N-((1R,2S)-1-{[(cyclopropylsulfonyl)amino]carbonyl}-2-vinylcyclopropyl)-5,8,19-trioxo-2,3,3a,5,6,7,8,11,12,21,22,23,24,25,26,26a-hexadecahydro-1H,10H,19H-9,12-methanocyclopenta[19,20][1,10,3,6,12]dioxatriazacycloicosino[12,11-b]isoquinoline-10-carboxamide], the Ki is 0.5 to 1 nM.

On to `C=C[C@@H]1C[C@]1(NC(=O)[C@@H]1C[C@@H]2CN1C(=O)[C@H](C1CCCC1)NC(=O)O[C@@H]1CCC[C@H]1C/C=C/CCn1c(cc3ccccc3c1=O)O2)C(=O)NS(=O)(=O)C1CC1` [Example 1, (3aR,7S,10S,12R,23E,25aS)-7-cyclopentyl-N-((1R,2S)-1-{[(cyclopropylsulfonyl)amino]carbonyl}-2-vinylcyclopropyl)-5,8,19-trioxo-1,2,3,3a,5,6,7,8,11,12,21,22,25,25a-tetradecahydro-10H,19H-9,12-methanocyclopenta[18,19][1,10,3,6,12]dioxatiazacyclononadecino[12,11-b]isoquinoline-10-carboxamide], for which the Ki is < 0.1 nM.

Regarding `C=C[C@@H]1C[C@]1(NC(=O)[C@@H]1C[C@@H]2CN1C(=O)[C@H](C1CCCC1)NC(=O)O[C@@H]1CCC[C@H]1CCCCCn1c(cc3ccccc3c1=O)O2)C(=O)NS(=O)(=O)C1CC1` [Example 13, (3aR,7S,10S,12R,25aR)-7-cyclopentyl-N-((1R,2S)-1-{[(cyclopropylsulfonyl)amino]carbonyl}-2-vinylcyclopropyl)-5,8,19-trioxo-1,2,3,3a,5,6,7,8,11,12,21,22,23,24,25,25a-hexadecahydro-10H,19H-9,12-methanocyclopenta[18,19][1,10,3,6,12]dioxatriazacyclotionadecino[12,11-b]isoquinoline-10-carboxamide], the Ki is < 0.1 nM.

Regarding `CC[C@@H]1C[C@]1(NC(=O)[C@@H]1C[C@@H]2CN1C(=O)[C@H](C1CCCC1)NC(=O)O[C@@H]1CCC[C@H]1CCCCCn1c(cc3ccc(F)cc3c1=O)O2)C(=O)NS(=O)(=O)C1CC1` [Example 16, (3aR,7S,10S,12R,25aR)-7-cyclopentyl-N-((1R,2R)-1-{[(cyclopropylsulfonyl)amino]carbonyl}-2-ethylcyclopropyl)-17-flouoro-5,8,19-trioxo-1,2,3,3a,5,6,7,8,11,12,21,22,23,24,25,25a-hexadecahydro-10H,19H-9,12-methanocyclopenta[18,19][1,10,3,6,12]dioxatriazacyclononadecino[12,11-b]isoquinoline-10-carboxamide], the Ki fell in the range of 0.1 to 0.5 nM.

Regarding `C=C[C@@H]1C[C@]1(NC(=O)[C@@H]1C[C@@H]2CN1C(=O)[C@H](C1CCCC1)NC(=O)O[C@@H]1CCC[C@H]1CCCCn1c(cc3ccccc3c1=O)O2)C(=O)NS(=O)(=O)C1CC1` [Example 19, (3aR,7S,10S,12R,24aR)-7-cyclopentyl-N-((1R,2S)-1-{[(cycloproylsulfonyl)amino]carbonyl}-2-vinylcyclopropyl)-5,8,19-trioxo-2,3,3a,5,6,7,8,11,12,21,22,23,24,24a-tetradecahydro-1H,10H,19H-9,12-methanocyclopenta[17,18][1,10,3,6,12]dioxatriazacyclooctadecino[12,11-b]isoquinoline-10-carboxamide], the Ki was 0.1 to 0.5 nM.

`CC[C@@H]1C[C@]1(NC(=O)[C@@H]1C[C@@H]2CN1C(=O)[C@H](C(C)(C)C)NC(=O)O[C@@H]1CCC[C@H]1CCCCCn1c(cc3cc(Cl)ccc3c1=O)O2)C(=O)NS(=O)(=O)C1CC1` [Example 28, (3aR,7S,10S,12R,25aR)-7-tert-butyl-16-chloro-N-((1R,2R)-1-{[(cyclopropylsulfonyl)amino]carbonyl}-2-ethylcyclopropyl)-5,8,19-trioxo-1,2,3,3a,5,6,7,8,11,12,21,22,23,24,25,25a-hexadecahydro-10H,19H-9,12-methanocyclopenta[18,19][1,10,3,6,12]dioxatriazacyclononadecino[12,11-b]isoquinolin-10-carboxamide] gave a Ki of 0.1 to 0.5 nM.
